Results reported in paper PMC3313936 (PLoS ONE, 2012).
Where two headings read alike, the source gives them in different places.

Legend:
CBM32-5 [1] = target: T1, CBM32-5 (Clostridium perfringens, UniProt A0A0H2YU91); conditions: 20 mM Tris-HCl pH 8.0; 20 °C (table; methods say 25 °C)
T1 construct: gene CPF_0859

CBM32-5 [2] = target: T1, CBM32-5; conditions: glycan immobilised on array; labelled protein
CBM32-5 [3] = target: T1, CBM32-5; conditions: 20 mM Tris-HCl pH 8.0; 20 °C (table; methods say 25 °C); n fixed at 1
CBM32-4 = target: T2, CBM32-4 (Clostridium perfringens, UniProt A0A0H2YU91); conditions: 50 mM HEPES pH 7.5, 25 °C; one-site fit, n fixed at 1
T2 construct: gene CPF_0859

CBM32-3 = target: T3, CBM32-3 (Clostridium perfringens, UniProt A0A0H2YU91); conditions: 50 mM HEPES pH 7.5, 25 °C; one-site fit, n fixed at 1
T3 construct: gene CPF_0859

CBM32-5 [4] = target: T1, CBM32-5; conditions: co-crystallised with 10 mM ligand, pH 5.6

In the case of `CC(=O)N[C@H]1C(O)O[C@H](CO)[C@H](O)[C@@H]1O` (stereo partly drawn) [D-GalNAc], the “Ka (M^-1)” value (CBM32-5 [1]) is reported as 5.01 (±0.64)×10^3.

With `OC[C@H]1OC(O)[C@H](O)[C@@H](O)[C@H]1O` (stereo partly drawn) [D-galactose] the “Ka (M^-1)” value (CBM32-5 [1]) was 1.69 (±0.05)×10^3.

With `CC(=O)N[C@H]1C(O)O[C@H](CO)[C@H](O)[C@@H]1O[C@@H]1O[C@H](CO)[C@H](O)[C@H](O)[C@H]1O` (stereo partly drawn) [Gal-β-1,3-GalNAc] the “Ka (M^-1)” value (CBM32-5 [1]) was 3.77 (±0.34)×10^3.

For `CC(=O)N[C@H]1[C@@H](O[C@@H]2[C@H](O)[C@@H](O[C@@H]3O[C@@H](C)[C@@H](O)[C@@H](O)[C@@H]3O)[C@H](O[C@H]3[C@H](O)[C@@H](NC(C)=O)C(O)O[C@@H]3CO)O[C@@H]2CO)O[C@H](CO)[C@H](O)[C@@H]1O` (stereo partly drawn) [GalNAc-α-1,4(Fuc-α-1,2)-Gal-β-1,4-GlcNAc], the glycan microarray (CBM32-5 [2]) was “this synthetic carbohydrate was clearly the top ligand from the array analysis”.

`CC(=O)N[C@H]1[C@H](O[C@H]2[C@@H](O)[C@@H](CO)OC(O)[C@@H]2O)O[C@H](CO)[C@H](O)[C@@H]1O` (stereo partly drawn) [GalNAc-β-1,3-Gal] was tested, and the “Ka (M^-1)” value (CBM32-5 [3]) was 3.40 (±0.10)×10^3.

For `CC(=O)N[C@H]1[C@@H](O[C@@H]2[C@H](O)[C@@H](O)C(O)O[C@@H]2CO)O[C@H](CO)[C@@H](O)[C@@H]1O` (stereo partly drawn) [GlcNAc-α-1,4-Gal], the association constant (CBM32-4) was 1.38 (±0.08)×10^4 and the association constant (CBM32-3) was 2.64 (±0.64)×10^4.

In the case of `OC[C@H]1O[C@@H](O[C@H]2[C@H](O)[C@@H](O)C(O)O[C@@H]2CO)[C@H](O)[C@@H](O)[C@H]1O` (stereo partly drawn) [Lactose], the “Ka (M^-1)” value (CBM32-5 [1]) is reported as 2.40 (±0.58)×10^3.

With `CC(=O)N[C@H]1[C@@H](OC[C@H](N)C(=O)O)O[C@H](CO)[C@H](O)[C@@H]1O` [Tn antigen, N-acetyl-α-D-galactosaminyl-1-O-serine] the “X-ray crystal structure of complex, 1.70 Å” value (CBM32-5 [4]) was 4a44 for CBM32-5 in complex with the Tn Antigen.
